A value given as a limit tells only on which side of the number the result lay.

By IC50 is commonly meant the concentration at which inhibition is half-maximal.

The target of this assay is T1, recombinant purified human EHMT2 913-1193 (Homo sapiens, UniProt Q96KQ7).
T1 construct: Recombinant purified human EHMT2 913-1193 (55 μM) synthesized by Viva was used for all experiments; purchased Viva
T1 sequence (Q96KQ7 913-1193): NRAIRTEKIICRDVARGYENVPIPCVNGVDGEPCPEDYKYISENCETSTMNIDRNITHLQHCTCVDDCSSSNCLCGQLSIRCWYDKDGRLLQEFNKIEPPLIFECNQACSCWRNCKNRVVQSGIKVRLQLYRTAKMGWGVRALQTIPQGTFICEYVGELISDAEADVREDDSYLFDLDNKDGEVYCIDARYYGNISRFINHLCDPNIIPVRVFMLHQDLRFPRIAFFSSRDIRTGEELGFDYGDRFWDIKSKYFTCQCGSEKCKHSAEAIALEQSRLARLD
Put plainly: EHMT2 enzyme assay on histone peptide substrate (3H-SAM Flashplate). The settings on record: read-out: EHMT2 PEP (IC50 μM). The format is biochemical. In outline:
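Compounds (10-point 3-fold series, top 50 μM final, 2% DMSO) preincubated 30 min with 0.031 nM EHMT2 in 20 mM Bicine pH 7.5, 1 mM TCEP; reaction started with 3H-SAM and biotinylated H3 1-15 peptide, both at Km, run 60 min at room temperature. Flashplate capture; IC50 from four-parameter fit, triplicates.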

For the compound `CNc1cc(C)nc(Nc2cnc(C)c(-c3cc4ccncc4[nH]3)c2)n1` [Compound 311], the IC50 is above 10 µM.
Next, `CNCc1ccnc(-c2cc(Nc3nc(C)cc(NC)n3)ccc2OC)c1` [Compound 313]: 0.1 to 1 µM; `CNC1=Nc2cc(-n3cc(CN4CCC4)cn3)c(OC)cc2C12CCC2` [Compound 314]: below 0.1 µM.
Next, `CNc1cc(C)nc(Nc2ccc(F)c(-n3cc(CN4CCC4)cn3)c2F)n1` [Compound 315]: 0.1 to 1 µM.
Next, `CNc1cc(C)nc(Nc2ccc(OC)c(-c3[nH]c4cnccc4c3CNC(C)=O)c2)n1` [Compound 316]: below 0.1 µM.
In the case of `CNCc1cnn(-c2c(OC)ccc(Nc3nc(C)cc(NC)n3)c2F)c1` [Compound 317, N2-(2-fluoro-4-methoxy-3-(4-((methylamino)methyl)-1H-pyrazol-1-yl)phenyl)-N4,6-dimethylpyrimidine-2,4-diamine], the IC50 was below 0.1 µM.
The result for `CNCc1cnn(-c2c(F)ccc(Nc3nc(C)cc(NC)n3)c2OC)c1` [Compound 318] reads 0.1 to 1 µM; that for `CNCc1cnn(-c2cc(Nc3nc(C)cc(NC)n3)ccc2Br)c1` [Compound 319], below 0.1 µM; that for `CCc1ccc(Nc2nc(C)cc(NC)n2)cc1-n1cc(CNC)cn1` [Compound 320], below 0.1 µM.
Take `CNc1cc(C)nc(Nc2ccc(OC)c(-n3cc(C4CCCN4)cn3)c2)n1` (stereo not drawn) [Compound 321]: the IC50 is below 0.1 µM.
The result for `CNC1=Nc2cc(-n3cc(C4CCCN4)cn3)c(OC)cc2C12CCC2` (stereo not drawn) [Compound 322] reads below 0.1 µM.
With `CNCc1cn(-c2cc(Nc3nc(C)cc(NC)n3)ccc2OC)nc1F` [Compound 323], the half-inhibitory concentration (IC50) was below 0.1 µM.
The result for `CNCc1cc(-c2cc(Nc3nc(C)cc(NC)n3)ccc2OC)on1` [Compound 324] reads 0.1 to 1 µM.
Next, `CNCc1cnn(-c2cc(Nc3nc(C)cc(NC)n3)ccc2C(F)(F)F)c1` [Compound 325]: below 0.1 µM; `CNC1=Nc2cc(-n3cc(C4CCCN4)cn3)c(Cl)cc2C12CCC2` (stereo not drawn) [Compound 326]: below 0.1 µM; `CNCc1cnn(-c2c(Cl)ccc(Nc3nc(C)cc(NC)n3)c2Cl)c1` [Compound 327]: below 0.1 µM.
Next, `CNCc1cnn(-c2c(Cl)ccc(Nc3nc(C)cc(NC)n3)c2F)c1` [Compound 328]: below 0.1 µM.
Turning to `CNCc1cnn(-c2c(F)ccc(Nc3nc(C)cc(NC)n3)c2Cl)c1` [Compound 329], the IC50 was below 0.1 µM.
The result for `CNc1cc(C)nc(Nc2ccc(Cl)c(-n3cc(C4CCCN4)cn3)c2)n1` (stereo not drawn) [Compound 330] reads below 0.1 µM.
Regarding `CNCc1cc(-c2cc(Nc3nc(C)cc(NC)n3)ccc2OC)no1` [Compound 331], the IC50 is below 0.1 µM.
The result for `CNc1cc(C)nc(Nc2ccc(OC)c(-c3cc4[nH]cc(C)c4cn3)c2)n1` [Compound 386] reads below 0.1 µM.

The record behind these values is patent US20220235065A1 (Epizyme, Inc., priority 2016, published 2022).
